One data set is described as follows: in vitro. Particulars: human, TOX HELA CC50 (μM).
For another data set, the system named is rgRSV224 virus. The data set is described as follows: Antiviral activity: rgRSV224 (GFP) replication in HeLa cells. In kind it is cell-based, respiratory syncytial virus (RSV). Conditions: human respiratory syncytial virus, HeLa, 72 h, read-out: RSV HELA EC50 (μM), rgRSV224 virus (MOI=1), HeLa cells, GFP expression three days post-virus exposure.

Bounds are passed on as bounds.

One may read the CC50 as the concentration that lowers cell viability or growth by half. A high value points to lower toxicity to the cells. By EC50 is commonly meant the concentration at which the effect is half-maximal. As for `C[C@@H]1c2ccccc2CCN1C(=O)c1cc(-c2ccc(C(F)(F)F)cc2)n2nc(-c3ccc(N4CC[C@H](C(N)=O)C4)cc3F)cc2n1` [Compound 61, (3S)-1-(3-Fluoro-4-{5-[(1R)-1-methyl-1,2,3,4-tetrahydroisoquinoline-2-carbonyl]-7-[4-(trifluoromethyl)phenyl]pyrazolo[1,5-a]pyrimidin-2-yl}phenyl)pyrrolidine-3-carboxamide], the CC50 at 3 days in “in vitro” is > 100 µM. Further, in the data set with rgRSV224 virus, the half-maximal effective concentration (EC50) is 0.193 µM.

Regarding `C[C@@H]1c2ccccc2CCN1C(=O)c1cc(C2CC2)n2nc(-c3ccc(N4C[C@@H](O)[C@@H](F)C4)cc3F)cc2n1` (relative stereo) [Compound 107, (7-cyclopropyl-2-(2-fluoro-4-(cis-3-fluoro-4-hydroxypyrrolidin-1-yl)phenyl)pyrazolo[1,5-a]pyrimidin-5-yl)((R)-1-methyl-3,4-dihydroisoquinolin-2(1H)-yl)methanone], the CC50 at 3 days in “in vitro” was 21.2 µM. Further, the EC50 with rgRSV224 virus turned out to be 0.017 µM.

For the molecule `C[C@@H]1c2ccsc2CCN1C(=O)c1cc(C2CC2)n2nc(-c3ccc(N4CC[C@@](C)(C(N)=O)C4)cc3F)cc2n1` (single isomer, unassigned) [Compound 44, (3*R)-1-(4-{7-Cyclopropyl-5-[(4*R)-4-methyl-4,5,6,7-tetrahydro-thieno[3,2-c]pyridine-5-carbonyl]pyrazolo[1,5-a]pyrimidin-2-yl}-3-fluorophenyl)-3-methylpyrrolidine-3-carboxamide], in the data set “in vitro”, it took 45.2 µM to reach half-maximal cytotoxicity (CC50 at 3 days). Moreover, the EC50 in the data set with rgRSV224 virus stood at 0.019 µM.

As for `C[C@@H]1c2ccccc2CCN1C(=O)c1cc(C2CC2)n2nc(-c3ccc(N4CCC(O)(CO)C4)cc3F)cc2n1` (single isomer, unassigned) [Compound 103], half-maximal cytotoxicity in “in vitro” (CC50 at 3 days) was put at 35.8 µM. Further, in the data set with rgRSV224 virus, the EC50 amounted to 0.019 µM.

In the data set “in vitro”, `C[C@@H]1c2ccccc2CCN1C(=O)c1cc(C2CC2)n2nc(-c3ccc(N4CC[C@H](C(C)(C)C(N)=O)C4)cc3F)cc2n1` (single isomer, unassigned) [Compound 27, 2-[(3*R)-1-(4-{7-Cyclopropyl-5-[(1R)-1-methyl-1,2,3,4-tetrahydroisoquinoline-2-carbonyl]pyrazolo[1,5-a]pyrimidin-2-yl}-3-fluorophenyl)pyrrolidin-3-yl]-2-methylpropanamide] returned a CC50 at 3 days of 34.4 µM. For the same molecule, in the data set on rgRSV224 virus, the EC50 came to 0.089 µM.

In the case of `C[C@@H]1c2ccccc2CCN1C(=O)c1cc(C2CC2)n2nc(-c3ccc(N4CC[C@H](NCC(F)(F)F)C4)cc3F)cc2n1` [Compound 94, (7-cyclopropyl-2-(2-fluoro-4-((S)-3-((2,2,2-trifluoroethyl)amino)pyrrolidin-1-yl)phenyl)pyrazolo[1,5-a]pyrimidin-5-yl)((R)-1-methyl-3,4-dihydroisoquinolin-2(1H)-yl)methanone], in “in vitro”, the CC50 at 3 days is > 100 µM. The EC50 in the data set on rgRSV224 virus was found to be 0.19 µM.

On to `C[C@@H]1c2ccccc2CCN1C(=O)c1cc(C2CC2)n2nc(-c3c(O)cc(N4CC[C@H](C(N)=O)C4)cc3F)cc2n1` [Compound 105, (S)-1-(4-(7-cyclopropyl-5-((R)-1-methyl-1,2,3,4-tetrahydroisoquinoline-2-carbonyl)pyrazolo[1,5-a]pyrimidin-2-yl)-3-fluoro-5-hydroxyphenyl)pyrrolidine-3-carboxamide], for which the CC50 at 3 days in “in vitro” is 83.6 µM. Besides, the EC50 in the data set with rgRSV224 virus was 0.025 µM.

Consider `CNC(=O)O[C@H]1CCN(c2ccc(-c3cc4nc(C(=O)N5CCc6ccccc6[C@H]5C)cc(C5CC5)n4n3)c(F)c2)C1` [Compound 16, (3S)-1-(4-{7-Cyclopropyl-5-[(1R)-1-methyl-1,2,3,4-tetrahydroisoquinoline-2-carbonyl]-pyrazolo[1,5-a]pyrimidin-2-yl}-3-fluorophenyl)pyrrolidin-3-yl N-methylcarbamate], for which, in the data set “in vitro”, the CC50 at 3 days is > 100 µM. Besides, in the data set with rgRSV224 virus, the EC50 was 0.11 µM.

For `Cc1ccc(-c2cc(C(=O)N3CCc4ccccc4[C@H]3C)nc3cc(-c4ccc(N5CC[C@H](C(N)=O)C5)cc4F)nn23)cc1` [Compound 58, (3S)-1-(3-Fluoro-4-{5-[(1R)-1-methyl-1,2,3,4-tetrahydroisoquinoline-2-carbonyl]-7-(4-methylphenyl)pyrazolo[1,5-a]pyrimidin-2-yl}phenyl)pyrrolidine-3-carboxamide], in “in vitro”, the CC50 at 3 days was > 100 µM. Also, the EC50 with rgRSV224 virus came out at 0.036 µM.

`C[C@@H]1c2ccccc2CCN1C(=O)c1cc(C2CC2)n2nc(-c3ccc(N4C[C@@H](O)[C@H](O)C4)cc3F)cc2n1` [Compound 100, (7-cyclopropyl-2-(4-((3R,4R)-3,4-dihydroxypyrrolidin-1-yl)-2-fluorophenyl)pyrazolo[1,5-a]pyrimidin-5-yl)((R)-1-methyl-3,4-dihydroisoquinolin-2(1H)-yl)methanone] had a CC50 at 3 days in “in vitro” of 23.8 µM. For the same molecule, the EC50 in the data set on rgRSV224 virus was found to be 0.011 µM.

`C[C@@H]1c2ccccc2CCN1C(=O)c1cc(C2CC2)n2nc(-c3ccc(N4CC[C@H](OC(N)=O)C4)cc3F)cc2n1` [Compound 78, (3S)-1-(4-{7-Cyclopropyl-5-[(1R)-1-methyl-1,2,3,4-tetrahydroisoquinoline-2-carbonyl]pyrazolo[1,5-a]pyrimidin-2-yl}-3-fluorophenyl)pyrrolidin-3-yl carbamate] came in with a CC50 at 3 days in the data set “in vitro” of 47.3 µM. Also, the EC50 in the data set on rgRSV224 virus stood at 0.055 µM.

`C[C@@H]1c2ccsc2CCN1C(=O)c1cc(C2CC2)n2nc(-c3ccc(N4CC[C@H](C(C)(C)C(N)=O)C4)cc3F)cc2n1` (single isomer, unassigned) [Compound 29, 2-[(3*R)-1-(4-{7-Cyclopropyl-5-[(4*R)-4-methyl-4,5,6,7-tetrahydro-thieno[3,2-c]pyridine-5-carbonyl]pyrazolo[1,5-a]pyrimidin-2-yl}-3-fluorophenyl)pyrrolidin-3-yl]-2-methyl-propanamide] had a CC50 at 3 days in “in vitro” of 43.7 µM. Further, the EC50 in the data set on rgRSV224 virus was found to be 0.045 µM.

Regarding `CNC(=O)C1CCCN(c2ccc(-c3cc4nc(C(=O)N5CCc6ccccc6[C@H]5C)cc(C5CC5)n4n3)c(F)c2)C1` (stereo partly drawn) [Compound 73, 1-(4-{7-Cyclopropyl-5-[(1R)-1-methyl-1,2,3,4-tetrahydroisoquinoline-2-carbonyl]-pyrazolo[1,5-a]pyrimidin-2-yl}-3-fluorophenyl)-N-methylpiperidine-3-carboxamide], the CC50 at 3 days in “in vitro” was > 100 µM. Also, in the data set on rgRSV224 virus, the EC50 worked out at 0.101 µM.

As to `C[C@@H]1c2ccccc2CCN1C(=O)c1cc(C2CC2)n2nc(-c3ccc(N4CC[C@H](O)C4)cc3F)cc2n1` [Compound 14, (3S)-1-(4-{7-Cyclopropyl-5-[(1R)-1-methyl-1,2,3,4-tetrahydroisoquinoline-2-carbonyl]-pyrazolo[1,5-a]pyrimidin-2-yl}-3-fluorophenyl)pyrrolidin-3-ol], the CC50 at 3 days in the data set “in vitro” is 81.2 µM. Further, the EC50 with rgRSV224 virus is 0.039 µM.

In turn, `CC(=O)N[C@H]1CCN(c2ccc(-c3cc4nc(C(=O)N5CCc6ccccc6[C@H]5C)cc(C5CC5)n4n3)c(F)c2)C1` [Compound 8, N-[(3S)-1-(4-{7-Cyclopropyl-5-[(1R)-1-methyl-1,2,3,4-tetrahydroisoquinoline-2-carbonyl]pyrazolo[1,5-a]pyrimidin-2-yl}-3-fluorophenyl)pyrrolidin-3-yl]acetamide] returned a CC50 at 3 days in “in vitro” of 51.5 µM. Besides, the EC50 with rgRSV224 virus amounted to 0.041 µM.

`C[C@@H]1c2ccccc2CCN1C(=O)c1cc(C2CC2)n2nc(-c3ccc(N4CCC(C(N)=O)CC4)cc3F)cc2n1` [Compound 68, 1-(4-{7-Cyclopropyl-5-[(1R)-1-methyl-1,2,3,4-tetrahydroisoquinoline-2-carbonyl]-pyrazolo[1,5-a]pyrimidin-2-yl}-3-fluorophenyl)piperidine-4-carboxamide] registered a CC50 at 3 days in “in vitro” of 26.6 µM. Further, the EC50 in the data set with rgRSV224 virus worked out at 0.058 µM.

`COc1cc(N2CC[C@H](C(N)=O)C2)nc(F)c1-c1cc2nc(C(=O)N3CCc4ccccc4[C@H]3C)cc(C3CC3)n2n1` [Compound 86, (3S)-1-(5-{7-Cyclopropyl-5-[(1R)-1-methyl-1,2,3,4-tetrahydroisoquinoline-2-carbonyl]-pyrazolo[1,5-a]pyrimidin-2-yl}-6-fluoro-4-methoxypyridin-2-yl)pyrrolidine-3-carboxamide] gave a CC50 at 3 days in “in vitro” of 49.5 µM. Besides, the EC50 in the data set on rgRSV224 virus is 0.161 µM.

The molecule `C[C@@H]1c2ccccc2CCN1C(=O)c1cc(C2CC2)n2nc(-c3ccc(N4CCC(CC(N)=O)CC4)cc3F)cc2n1` [Compound 70, 2-[1-(4-{7-Cyclopropyl-5-[(1R)-1-methyl-1,2,3,4-tetrahydroisoquinoline-2-carbonyl]-pyrazolo[1,5-a]pyrimidin-2-yl}-3-fluorophenyl)piperidin-4-yl] acetamide] came in with a CC50 at 3 days in “in vitro” of 28.2 µM. For the same molecule, the EC50 in the data set on rgRSV224 virus worked out at 0.104 µM.

Molecule `C[C@@H]1c2ccccc2CCN1C(=O)c1cc(C2CC2)n2nc(-c3ccc(N4CC(CC(N)=O)C4)nc3F)cc2n1` [Compound 92, 2-[1-(5-{7-Cyclopropyl-5-[(1R)-1-methyl-1,2,3,4-tetrahydroisoquinoline-2-carbonyl]-pyrazolo[1,5-a]pyrimidin-2-yl}-6-fluoropyridin-2-yl)azetidin-3-yl]acetamide] had a CC50 at 3 days in “in vitro” of 41.5 µM. Further, the EC50 with rgRSV224 virus is 0.071 µM.

In “in vitro”, `C[C@@H]1c2ccccc2CCN1C(=O)c1cc(C2CC2)n2nc(-c3ccc(N4CC[C@@](C)(CC(N)=O)C4)cc3F)cc2n1` (single isomer, unassigned) [Compound 24, 2-[(3*S)-1-(4-{7-Cyclopropyl-5-[(1R)-1-methyl-1,2,3,4-tetrahydroisoquinoline-2-carbonyl]pyrazolo[1,5-a]pyrimidin-2-yl}-3-fluorophenyl)-3-methylpyrrolidin-3-yl]acetamide] came in with a CC50 at 3 days of 26.4 µM. For the same molecule, the EC50 in the data set on rgRSV224 virus turned out to be 0.03 µM.

With `C[C@@H]1c2ccccc2CCN1C(=O)c1cc(C2CC2)n2nc(-c3ccc(N4CC[C@H](NS(C)(=O)=O)C4)cc3F)cc2n1` [Compound 12, N-[(3S)-1-(4-{7-Cyclopropyl-5-[(1R)-1-methyl-1,2,3,4-tetrahydroisoquinoline-2-carbonyl]pyrazolo[1,5-a]pyrimidin-2-yl}-3-fluorophenyl)pyrrolidin-3-yl]methane-sulfonamide], the CC50 at 3 days in “in vitro” was > 100 µM. Also, the EC50 with rgRSV224 virus turned out to be 0.041 µM.

For the origin of these results see patent US11339165B2, “Pyrazolopyrimidines having activity against the respiratory syncytial virus (RSV)” (priority 2017, dated 2022).
